Data on six molecules can be found in BindingDB's records for doi:10.1021/bi0488799 (Glaxosmithkline, 2004).

Common to all, as to conditions: pH 5.5; 30 °C
The target in assay [1] is T1, Dimer of Gag-Pol polyprotein [489-587,I539V] (Human immunodeficiency virus 1, UniProt P04585, I539V).
T1 construct: 489-587
Put plainly: Kinetic Competitive Displacement Assay. The method, then:
The method was a competitive displacement assay used to determine binding affinities of other inhibitors relative to that of GW0385. The inhibitor of unknown affinity was used to displace [3H]GW0385 from enzyme-bound [3H]GW0385 (E[3H]GW0385). From the concentration of E[3H]GW0385 at equilibrium, the concentrations of enzyme-bound and free inhibitors were calculated, and the ratio of the Ki value of the unknown to that of GW0385 was determined (Ki,unknown/Ki,GW0385).

Assay [2] concerns the target T2, Dimer of Gag-Pol polyprotein [489-587,L499I,L508Q,K509R,E524D,M525I,S526N,M535I,I539V,I543V,I551V,L552P,A560V,V571A,L579M] (Human immunodeficiency virus 1, UniProt P04585, A560V/E524D/I539V/I543V/I551V/K509R/L499I/L508Q/L552P/L579M/M525I/M535I/S526N/V571A).
T2 construct: 489-587
Put plainly: Fluorometric Activity Assay. The method, then:
(§1) Enzymatic activity was determined with fluorogenic substrate in the presence and absence of inhibitor. The fluorescence increase due to hydrolysis of the substrate was monitored with an excitation filter of wavelength 340 nm and an emission filter of wavelength 420. Values for the inhibition constants (Ki) were determined by conventional steady-state kinetic techniques.

Assay [3] has as its target T3, Dimer of Gag-Pol polyprotein [489-587,M535I,L552P,A560V,V571F,I573V] (Human immunodeficiency virus 1, UniProt P04585, A560V/I573V/L552P/M535I/V571F).
T3 construct: 489-587
Description: Fluorometric Activity Assay. The procedure:
as §1

The target of assay [4] is T4, Dimer of Gag-Pol polyprotein [489-587] (Human immunodeficiency virus 1, UniProt P12497).
T4 construct: 489-587
Description: Fluorometric Activity Assay. The procedure:
as §1

Assay [5] addresses T2, Dimer of Gag-Pol polyprotein [489-587,L499I,L508Q,K509R,E524D,M525I,S526N,M535I,I539V,I543V,I551V,L552P,A560V,V571A,L579M]. Put plainly: GW0385 Assay. The procedure:
(§2) The assay method employed kinetic determinations of values for k1 and k-1, from which value of inhibition constant (Ki ) was determined (k-1/k1). The k1 is calculated from spectrofluorometric data in the presence of saquinavir. The k-1 is calculated from the time course for displacement of [3H]GW0385 from E[3H]GW0385 by nonlabeled GW0385.

The target of assay [6] is T1, Dimer of Gag-Pol polyprotein [489-587,I539V]. Put plainly: GW0385 Assay. The method, then:
as §2

Consider `CC(C)CN(C[C@@H](O)[C@H](Cc1ccc(OCc2ccccn2)cc1)NC(=O)O[C@H]1CO[C@H]2OCC[C@H]21)S(=O)(=O)c1ccc2c(c1)OCO2` [(3R,3aS,6aR)-hexahydrofuro[2,3-b]furan-3-yl N-[(2S,3R)-4-[2H-1,3-benzodioxole-5-(2-methylpropyl)sulfonamido]-3-hydroxy-1-[4-(pyridin-2-ylmethoxy)phenyl]butan-2-yl]carbamate], for which the results for the inhibitory constant (Ki) in assay [1] and in assay [2] were 2.6 pM and 1.7 pM, respectively.
`CC(C)CN(C[C@@H](O)[C@H](Cc1ccc(OCCc2cccs2)cc1)NC(=O)O[C@H]1CO[C@H]2OCC[C@H]21)S(=O)(=O)c1ccc2c(c1)OCO2` [(3R,3aS,6aR)-hexahydrofuro[2,3-b]furan-3-yl N-[(2S,3R)-4-[2H-1,3-benzodioxole-5-(2-methylpropyl)sulfonamido]-3-hydroxy-1-{4-[2-(thiophen-2-yl)ethoxy]phenyl}butan-2-yl]carbamate]: the Ki in assay [1] came out at 3.9 pM; in assay [2] it was 2.4 pM.
In the case of `CNC(=O)OCCCC(C)(C)CN(C[C@@H](O)[C@H](Cc1ccccc1)NC(=O)O[C@H]1CO[C@H]2OCC[C@H]21)S(=O)(=O)c1ccc2c(c1)OCO2` [(3R,3aS,6aR)-hexahydrofuro[2,3-b]furan-3-yl N-[(2S,3R)-4-[2H-1,3-benzodioxole-5-({2,2-dimethyl-5-[(methylcarbamoyl)oxy]pentyl})sulfonamido]-3-hydroxy-1-phenylbutan-2-yl]carbamate], the results for the Ki in assay [1], in assay [2] and in assay [3] were 27 pM, 54.4 pM and 25 pM, respectively.
For `CCOC(=O)NCCCCC(C)(C)CN(C[C@@H](O)[C@H](Cc1ccccc1)NC(=O)O[C@H]1CO[C@H]2OCC[C@H]21)S(=O)(=O)c1ccc2c(c1)OCO2` [(3R,3aS,6aR)-hexahydrofuro[2,3-b]furan-3-yl N-[(2S,3R)-4-[2H-1,3-benzodioxole-5-({6-[(ethoxycarbonyl)amino]-2,2-dimethylhexyl})sulfonamido]-3-hydroxy-1-phenylbutan-2-yl]carbamate], the results for the Ki in assay [1], in assay [2] and in assay [3] were 4.6 pM, 1.2 pM and 4.3 pM, respectively.
`CC(C)CN(C[C@@H](O)[C@H](Cc1ccccc1)NC(=O)O[C@H]1CCOC1)S(=O)(=O)c1ccc(N)cc1` [VX-478] gave a Ki in assay [4] of 57 pM.
On to `Cc1nc(COc2ccc(C[C@H](NC(=O)O[C@H]3CO[C@H]4OCC[C@H]43)[C@H](O)CN(CC(C)C)S(=O)(=O)c3ccc4c(c3)OCO4)cc2)cs1` [[3H]GW0385], for which the values for the inhibitory constant (Ki) in assay [5] and in assay [6] were 3.4 pM and 2 pM, respectively.

In general, Ki refers to a dissociation constant, usually derived from enzyme kinetics or from competition with a known ligand. High values mean weaker binding, low ones tighter binding.
